In the supplement of paper PMC10307832:

Columns and labels:
Test in all cases: relative viability (nuclei count vs DMSO), 5 days (fraction); higher = more cells survive
[1] = compound: C1CC(C2=C(C1)C3=C(N2)C=CC(=C3)Cl)C(=O)N [Selisistat] + CC(C)C[C@H](NC(=O)[C@H](Cc1ccccc1)NC(=O)c1cnccn1)B(O)O [Bortezomib] (partner 0.002 µM)
Outline: (§1)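 A single step with final 0.05% Triton X-100, 1% formaldehyde and 1 ug/ml Hoechst fixed the cells and stained nuclei 5 days after treatment. Lung cancer cell lines in 1536-well plates had been treated by pin tool the day after seeding with one drug alone or a fixed anchor-drug dose plus five library-drug doses (not always all listed) in √10 steps, and nuclei were counted on 4× images. Relative viability is the ratio of nuclei in treated wells to nuclei in vehicle wells, taken as the median of duplicate plates.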

[2] = compound: C1CC(C2=C(C1)C3=C(N2)C=CC(=C3)Cl)C(=O)N [Selisistat] + C[C@@H](Oc1cc(-c2cnn(C3CCNCC3)c2)cnc1N)c1c(Cl)ccc(F)c1Cl [Crizotinib] (partner 1 µM)
Outline: as §1

[3] = compound: c1ccc2c(CCNc3ccc(Nc4ccncc4)cc3)c[nH]c2c1 [Serdemetan] + CC(C)C[C@H](NC(=O)[C@H](Cc1ccccc1)NC(=O)c1cnccn1)B(O)O [Bortezomib] (partner 0.002 µM)
Outline: as §1

[4] = compound: c1ccc2c(CCNc3ccc(Nc4ccncc4)cc3)c[nH]c2c1 [Serdemetan] + NC(=O)Nc1cc(-c2cccc(F)c2)sc1C(=O)N[C@H]1CCCNC1 [AZD7762] (partner 0.2 µM)
Outline: as §1

| Cell Line | relative viability ([1]; first compound 0.4 µM) | relative viability ([1]; first compound 1.265 µM) | relative viability ([1]; first compound 4 µM) | relative viability ([1]; first compound 12.65 µM) | relative viability ([1]; first compound 40 µM) | relative viability ([2]; first compound 0.4 µM) | relative viability ([2]; first compound 1.265 µM) | relative viability ([2]; first compound 4 µM) | relative viability ([2]; first compound 12.65 µM) | relative viability ([2]; first compound 40 µM) | relative viability ([3]; first compound 0.04 µM) | relative viability ([3]; first compound 0.1265 µM) | relative viability ([3]; first compound 0.4 µM) | relative viability ([3]; first compound 1.265 µM) | relative viability ([3]; first compound 4 µM) | relative viability ([4]; first compound 0.04 µM) | relative viability ([4]; first compound 0.1265 µM) | relative viability ([4]; first compound 0.4 µM) | relative viability ([4]; first compound 1.265 µM) | relative viability ([4]; first compound 4 µM) |
| --- | --- | --- | --- | --- | --- | --- | --- | --- | --- | --- | --- | --- | --- | --- | --- | --- | --- | --- | --- | --- |
| HCC-44 | 0.857 | 0.908 | 1.02 | 0.926 | 0.952 | 0.804 | 0.788 | 0.957 | 0.871 | 0.801 | 0.854 | 0.849 | 0.827 | 0.621 | 0.85 | 0.921 | 1.01 | 0.994 | 0.936 | 0.934 |
| HCC-78 | 0.515 | 0.471 | – | 0.489 | 0.514 | 0.341 | 0.304 | 0.3 | 0.307 | 0.345 | 0.471 | 0.524 | 0.476 | 0.52 | 0.372 | 0.578 | 0.571 | 0.514 | 0.589 | 0.503 |
| NCI-H727 | 1.01 | 0.623 | – | – | 0.864 | 0.823 | 0.816 | – | – | 0.729 | 0.923 | 1.01 | 1.03 | 0.557 | 0.431 | 0.562 | 0.437 | 0.526 | 0.443 | 0.481 |
| NCI-H2087 | 0.738 | 0.709 | 0.734 | 0.806 | 0.719 | 0.847 | 0.77 | 1.13 | 0.763 | 0.784 | 0.738 | 0.812 | 0.759 | 0.375 | 0.572 | 1.23 | 0.828 | 0.778 | 0.494 | 0.535 |
| BEN | 0.888 | 0.984 | 0.492 | 0.73 | 0.609 | 0.843 | 0.76 | 0.748 | 0.72 | 0.863 | 0.785 | 0.924 | 0.766 | 0.48 | 0.763 | 0.75 | 0.545 | 0.662 | 0.556 | 0.641 |
| LCLC-103H | 1.15 | 1.03 | 0.979 | 1.14 | 1.09 | 1.08 | 0.991 | 0.996 | 0.999 | 1.07 | 1.12 | 1.05 | 0.96 | 0.736 | 1.2 | 0.788 | 0.79 | 0.763 | 0.759 | 0.812 |
| EKVX | 1 | 1 | 0.671 | 0.84 | 1.04 | 0.964 | 0.925 | 1.01 | 0.896 | 0.983 | 1.09 | 1 | 0.857 | 0.911 | 1.25 | 0.808 | 0.746 | – | – | 0.649 |
| LXF-289 | 1.02 | 1.05 | 0.832 | 0.937 | 0.984 | 0.853 | 0.803 | 0.786 | 0.709 | 0.805 | 0.954 | 1.01 | 0.944 | 0.951 | 0.894 | 1.07 | 1.11 | 1.07 | 0.982 | 0.846 |
